Several values for one entry are separate records, joined by “and”; a condition that tells them apart may be missing. Equal values may be shown once. Inconclusive results and toxic doses are left out. No stated cut-off is given here; in the data, active means T/C of 150% or more; inactive means T/C below 125%.
System: L1210 leukemia ip in BDF1 mice, survival T/C
Assay: NCI In Vivo Anticancer Drug Screen. Data for tumor model L1210 Leukemia (intraperitoneal) in B6D2F1 (BDF1) mice
Settings: endpoint: mean survival time, higher = longer survival
Summary of the method: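 Tumor cells were implanted, animals were treated, and survival was followed. The result divides the treated measurement by the vehicle-control measurement.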

[1] = dose: 100.0 mg/kg/injection, schedule: Q01DX001 (ip), vehicle: other
[2] = dose: 200.0 mg/kg/injection, schedule: Q01DX001 (ip), vehicle: other
[3] = dose: 400.0 mg/kg/injection, schedule: Q01DX001 (ip), vehicle: other
[4] = dose: 100.0 mg/kg/injection, schedule: Q01DX009 (ip), vehicle: saline with Tween-80
[5] = dose: 100.0 mg/kg/injection, schedule: Q04DX003 (ip), vehicle: saline with Tween-80
[6] = dose: 200.0 mg/kg/injection, schedule: Q01DX009 (ip), vehicle: saline with Tween-80
[7] = dose: 200.0 mg/kg/injection, schedule: Q04DX003 (ip), vehicle: saline with Tween-80
[8] = dose: 400.0 mg/kg/injection, schedule: Q01DX009 (ip), vehicle: saline with Tween-80
[9] = dose: 400.0 mg/kg/injection, schedule: Q04DX003 (ip), vehicle: saline with Tween-80
[10] = dose: 100.0 mg/kg/injection, schedule: Q04DX003 (ip), vehicle: Klucel (hydroxypropylcellulose) (HPC)
[11] = dose: 200.0 mg/kg/injection, schedule: Q04DX003 (ip), vehicle: Klucel (hydroxypropylcellulose) (HPC)
[12] = dose: 400.0 mg/kg/injection, schedule: Q04DX003 (ip), vehicle: Klucel (hydroxypropylcellulose) (HPC)
[13] = dose: 50.0 mg/kg/injection, schedule: Q04DX003 (ip), vehicle: Klucel (hydroxypropylcellulose) (HPC)
[14] = dose: 100.0 mg/kg/injection, schedule: Q01DX001 (ip), vehicle: Klucel (hydroxypropylcellulose) (HPC)
[15] = dose: 200.0 mg/kg/injection, schedule: Q01DX001 (ip), vehicle: Klucel (hydroxypropylcellulose) (HPC)
[16] = dose: 400.0 mg/kg/injection, schedule: Q01DX001 (ip), vehicle: Klucel (hydroxypropylcellulose) (HPC)

Measured: T/C

CCCB(O)O
inactive: [1] 100 % of control | dose: 100.0 mg/kg/injection, schedule: Q04DX003 (ip), vehicle: other 106 % of control | [2] 101 % of control | dose: 200.0 mg/kg/injection, schedule: Q04DX003 (ip), vehicle: other 105 % of control | [3] 101 % of control | dose: 400.0 mg/kg/injection, schedule: Q04DX003 (ip), vehicle: other 106 % of control

COc1ccc(C(=O)N/N=C/c2cccc([N+](=O)[O-])c2)cc1
inactive: dose: 100.0 mg/kg/injection, schedule: Q01DX001 (ip), vehicle: carboxymethylcellulose (CMC) 98 % of control | dose: 100.0 mg/kg/injection, schedule: Q01DX009 (ip), vehicle: carboxymethylcellulose (CMC) 90 % of control and 92 % of control | dose: 100.0 mg/kg/injection, schedule: Q04DX002 (ip), vehicle: other 98 % of control | dose: 100.0 mg/kg/injection, schedule: Q04DX003 (ip), vehicle: carboxymethylcellulose (CMC) 98 % of control | dose: 200.0 mg/kg/injection, schedule: Q01DX001 (ip), vehicle: carboxymethylcellulose (CMC) 97 % of control | dose: 200.0 mg/kg/injection, schedule: Q01DX009 (ip), vehicle: carboxymethylcellulose (CMC) 101 % of control and 90 % of control | dose: 200.0 mg/kg/injection, schedule: Q04DX002 (ip), vehicle: other 95 % of control | dose: 200.0 mg/kg/injection, schedule: Q04DX003 (ip), vehicle: carboxymethylcellulose (CMC) 98 % of control | dose: 400.0 mg/kg/injection, schedule: Q01DX001 (ip), vehicle: carboxymethylcellulose (CMC) 93 % of control | dose: 400.0 mg/kg/injection, schedule: Q01DX009 (ip), vehicle: carboxymethylcellulose (CMC) 95 % of control and 96 % of control | dose: 400.0 mg/kg/injection, schedule: Q04DX002 (ip), vehicle: other 95 % of control | dose: 400.0 mg/kg/injection, schedule: Q04DX003 (ip), vehicle: carboxymethylcellulose (CMC) 102 % of control

c1ccc(CCSc2ccccc2)cc1
inactive: [4] 102 % of control | [5] 103 % of control | [6] 98 % of control | [7] 97 % of control | [8] 95 % of control | [9] 94 % of control

O=C(O)/C=C/C(=O)Nc1cccc(NC(=O)/C=C/C(=O)O)c1
inactive: [10] 94 % of control | [11] 97 % of control | [12] 96 % of control

Cc1ccc(C[As](C)(=O)O)cc1
inactive: dose: 25.0 mg/kg/injection, schedule: Q04DX003 (ip), vehicle: Klucel (hydroxypropylcellulose) (HPC) 100 % of control | [13] 98 % of control | [10] 97 % of control

O=C(OC(c1c(Cl)cccc1Cl)c1nccc2ccccc12)c1ccccc1 (stereo unspecified)
inactive: dose: 100.0 mg/kg/injection, schedule: Q01DX001 (ip), vehicle: steriod suspending solution 95 % of control | dose: 200.0 mg/kg/injection, schedule: Q01DX001 (ip), vehicle: steriod suspending solution 97 % of control | dose: 400.0 mg/kg/injection, schedule: Q01DX001 (ip), vehicle: steriod suspending solution 88 % of control

N=C(N=C(Cc1ccccc1)c1ccccc1)c1ccccc1
inactive: [14] 92 % of control | [10] 104 % of control | [15] 92 % of control | [11] 96 % of control | [16] 94 % of control | [12] 91 % of control

Cc1ccnc([N+](=O)[O-])c1
inactive: [4] 103 % of control | [6] 92 % of control | [8] 106 % of control

CCCCCCCCCCCCCCCC(=O)ONC(N)=O
inactive: dose: 100.0 mg/kg/injection, schedule: Q01DX001 (ip), vehicle: saline with Tween-80 100 % of control | dose: 200.0 mg/kg/injection, schedule: Q01DX001 (ip), vehicle: saline with Tween-80 96 % of control | dose: 400.0 mg/kg/injection, schedule: Q01DX001 (ip), vehicle: saline with Tween-80 91 % of control

Cc1ccc2c(C)c(C)c(=O)n(C)c2c1
inactive: [1] 104 % of control | [2] 98 % of control | [3] 95 % of control

CC(Oc1cc(Cl)ccc1Cl)C(=O)O (stereo unspecified)
inactive: [13] 114 % of control | dose: 100.0 mg/kg/injection, schedule: Q01DX009 (ip), vehicle: Klucel (hydroxypropylcellulose) (HPC) 110 % of control | [10] 105 % of control | dose: 200.0 mg/kg/injection, schedule: Q01DX009 (ip), vehicle: Klucel (hydroxypropylcellulose) (HPC) 114 % of control | [11] 104 % of control | dose: 400.0 mg/kg/injection, schedule: Q01DX009 (ip), vehicle: Klucel (hydroxypropylcellulose) (HPC) 108 % of control

NCCc1cnc(N=Nc2ccc(S(=O)(=O)N(CCCl)CCCl)cc2)[nH]1
inactive: [5] 93 % of control | [7] 86 % of control | [9] 89 % of control

COC(=O)c1ccccc1NC(=O)c1ccccc1[N+](=O)[O-]
inactive: dose: 75.0 mg/kg/injection, schedule: Q04DX003 (ip), vehicle: Klucel (hydroxypropylcellulose) (HPC) 101 % of control | [14] 95 % of control | dose: 150.0 mg/kg/injection, schedule: Q04DX003 (ip), vehicle: Klucel (hydroxypropylcellulose) (HPC) 98 % of control | [15] 100 % of control | dose: 300.0 mg/kg/injection, schedule: Q04DX003 (ip), vehicle: Klucel (hydroxypropylcellulose) (HPC) 97 % of control | [16] 95 % of control

O=C1OC(=O)C(Cl)=C1Cl
inactive: dose: 25.0 mg/kg/injection, schedule: Q04DX002 (ip), vehicle: saline with Tween-80 97 % of control | dose: 50.0 mg/kg/injection, schedule: Q04DX002 (ip), vehicle: saline with Tween-80 93 % of control | dose: 100.0 mg/kg/injection, schedule: Q04DX002 (ip), vehicle: saline with Tween-80 104 % of control and 112 % of control

NCCSC(c1ccccc1)(c1ccccc1)c1ccccc1
inactive: dose: 25.0 mg/kg/injection, schedule: Q01DX009 (ip), vehicle: saline 94 % of control | dose: 50.0 mg/kg/injection, schedule: Q01DX009 (ip), vehicle: saline 103 % of control | dose: 100.0 mg/kg/injection, schedule: Q01DX009 (ip), vehicle: saline 107 % of control

O=C(O)c1cccc2c1-c1ccc(Cl)cc1C2
inactive: [10] 104 % of control | [11] 102 % of control
